The DC50 is the concentration at which degradation of the target reaches its halfway point. As usually defined, the Dmax is the greatest extent of degradation seen. A low value points to shallow degradation.

Molecules are shown by their SMILES. Some results are limits rather than exact numbers.

The record followed here is patent publication US20240190841A1, “MODULATORS OF BCL6 PROTEOLYSIS AND ASSOCIATED METHODS OF USE” (Arvinas Operations, Inc., priority 2022, published 2024).

In the assay the target is T1, BCL6 (Homo sapiens, UniProt P41182).
T1 construct: endogenous in cells; host or cells: T47D breast cancer epithelial cells
The experiment in a line: Immunofluorescence high content imaging of BCL6 degradation in T47D cells. Format: cell-based. As to conditions: T47D breast cancer epithelial cells, 3 days incubation. As for the experimental part: Immunofluorescence Protocol for High Content Imaging of BCL6
T47D cells were seeded in 100 μl volume of RPMI11640-10% FBS in a 96-well black/clear bottom plates for adherent lines (Corning #3904).
Day 1. T47D breast cancer epithelial cells were seeded at a density so that confluence is ˜70-90% at endpoint. Cells were seeded at 7K/0.1 mL/well the morning prior to the addition of exemplary bifunctional degradation compounds.
Day 2. Prepare an 11 point 3-fold serial dilution of exemplary bifunctional compound in DMSO and aliquot an appropriate volume to cell growth media to generate a 2× final concentration of exemplary bifunctional compound. Add an equal volume (0.1 ml) of 2× exemplary bifunctional compound/media mix to previously plated cells, for a final top concentration in aqueous cell growth media of 0.1 or 1 μM. Incubate for 3 days at 37° C., 5% CO2.
Day 5 Immunofluorescence. Discard cell media. Wash wells with 200 μl of room temperature phosphate-buffered saline (PBS). Prepared 4% paraformaldehyde (PFA) from 16% PFA (Electron Microscopy Sciences #15710) using 1×PBS. Fifty μL of 4% PF was added to each well and incubate for 15 minutes at room temperature to fix the cells. The PFA was aspirated and the cells washed twice with PBS (200 μL)).
Prepared 0.1% Triton X-100 in PBS using 10% triton X-100 stock. The cells were permeabilized by adding 100 μL of the 0.1% Triton X-100 in PBS to each well to permeabilize cells and incubating at room temperature for 15 minutes. Cells were washed twice with PBS.
Prepared 3% BSA/PBS (from Thermofisher #37515 Blocker BSA in TBS, 10%), and 100 μL was added to each well. The cells were incubated for at least 1 hour at room temperature.
Prepared 1% BSA/PBS using Blocker BSA/PBS, and the 3% BSA/PBS removed from the wells.
For no primary antibody controls, 50 μL 1% BSA/PBS was added.
Primary antibody (BCL6 Rb Ab, CST-14895, Cell Signaling) was diluted 1:300 in 1% BSA/PBS using Blocker BSA/PBS.
Fifty μl of primary antibody added to all remaining wells (i.e., all wells other than the primary antibody controls) and the cells were incubated overnight at 4° C. with slow orbital movement.
Day 6. Contents of the wells was removed and the cells washed four times with 200 μL PBS. 1% BSA/PBS was prepared using Blocker BSA in PBS.
Diluted secondary antibody goat anti-Rb IgG Alexa-488 1:1000, and cell mask-Alexa-647 1:3000 in 1% BSA/PBS in the same mix. Add 50 μL to each well and incubate at room temperature for 1 hour in the dark.
Cells were washed three times with 200 μL PBS, and then incubated for 10 minutes with 100 μL Hoechst dye at 1 μg/mL (20 mM stock) to stain cell nuclei. Wells were then washed with 200 μl PBS, and 100 μL of PBS was added to each well and the plate covered plate with a plastic opaque cover. Plates were stored at […] and covered in aluminum foil until imaged.
Plates were equilibrated to room temperature prior to reading. The bottom of the plate was wiped with 70% isopropanol immediately prior to imaging.
Imaging: • 10×, 4 fields/well, include Top hat smoothing in the analysis protocol.
Supplies/Reagents: • 16% paraformaldehyde: Electron Microscopy Sciences #15710 • Hoechst: Thermofisher #62249 • Blocker BSA in PBS, 10%: Thermofisher #37515 • Blocker BSA in TBS, 10%: Thermofisher #37520 • Goat anti-rabbit or mouse AlexaFluor-488: Thermofisher #A11008 • Cell mask deep red AlexaFluor-647: Thermofisher #C10046 • Wash buffer, PBS: 20×PBS, Thermofisher
For `CNC(=O)COc1cc2cc(Nc3nc(N4CCC(O[C@H]5C[C@H](N6CCN(c7ccc8c(c7F)[C@@H](C)N([C@H]7CCC(=O)NC7=O)C8=O)[C@H](C)C6)C5)CC4)ncc3Cl)ccc2n(C(C)C)c1=O` (single isomer, unassigned) [Compound 30], the DC50 lay in the range of 10 to 50 nM and the Dmax was less than 50%.

`CNC(=O)COc1cc2cc(Nc3nc(N4CCC(O[C@H]5C[C@H](N6CCN(c7ccc8c(c7F)[C@@H](C)N([C@@H]7CCC(=O)NC7=O)C8=O)[C@H](C)C6)C5)CC4)ncc3Cl)ccc2n(C(C)C)c1=O` (single isomer, unassigned) [Compound 31] gave a DC50 of less than 10 nM.

For `CNC(=O)COc1cc2cc(Nc3nc(N4CCC(O[C@H]5C[C@H](N6CCN(c7ccc8c(c7Cl)[C@@H](C)N([C@H]7CCC(=O)NC7=O)C8=O)[C@H](C)C6)C5)CC4)ncc3Cl)ccc2n(C(C)C)c1=O` (single isomer, unassigned) [Compound 32], the DC50 was less than 10 nM and the Dmax is no less than 70%.

As to `CNC(=O)COc1cc2cc(Nc3nc(N4CCC(O[C@H]5C[C@H](N6CCN(c7ccc8c(c7Cl)[C@@H](C)N([C@@H]7CCC(=O)NC7=O)C8=O)[C@H](C)C6)C5)CC4)ncc3Cl)ccc2n(C(C)C)c1=O` (single isomer, unassigned) [Compound 33], the DC50 is less than 10 nM and the Dmax was no less than 70%.

Turning to `CNC(=O)COc1cc2cc(Nc3nc(N4CCC(O[C@H]5C[C@H](N6CCN(c7ccc8c(c7Cl)[C@H](C)N([C@H]7CCC(=O)NC7=O)C8=O)[C@H](C)C6)C5)CC4)ncc3Cl)ccc2n(C(C)C)c1=O` (single isomer, unassigned) [Compound 34], the DC50 is 10 to 50 nM and the Dmax was less than 50%.

With `CNC(=O)COc1cc2cc(Nc3nc(N4CCC(O[C@H]5C[C@H](N6CCN(c7ccc8c(c7Cl)[C@H](C)N([C@@H]7CCC(=O)NC7=O)C8=O)[C@H](C)C6)C5)CC4)ncc3Cl)ccc2n(C(C)C)c1=O` (single isomer, unassigned) [Compound 35], the DC50 is less than 10 nM and the Dmax is 50 to 70%.

`CNC(=O)COc1cc2cc(Nc3nc(N4CCC(O[C@H]5C[C@H](N6CCC(c7cccc8c7n(C)c(=O)n8C7CCC(=O)NC7=O)CC6)C5)CC4)ncc3Cl)ccc2n(C(C)C)c1=O` (stereo partly shown) [Compound 1, 2-({6-[(5-chloro-2-{4-[(1r,3r)-3-{4-[1-(2,6-dioxopiperidin-3-yl)-3-methyl-2-oxo-2,3-dihydro-1H-1,3-benzodiazol-4-yl]piperidin-1-yl}cyclobutoxy]piperidin-1-yl}pyrimidin-4-yl)amino]-2-oxo-1-(propan-2-yl)-1,2-dihydroquinolin-3-yl}oxy)-N-methylacetamide] gave a DC50 of less than 10 nM and a Dmax of no less than 70%.

The compound `CNC(=O)COc1cc2cc(Nc3nc(N4CCC(O[C@H]5C[C@H](N6CCN(c7cccc8c7n(C)c(=O)n8C7CCC(=O)NC7=O)CC6)C5)CC4)ncc3Cl)ccc2n(C(C)C)c1=O` (stereo partly shown) [Compound 2, 2-({6-[(5-chloro-2-{4-[(1r,3r)-3-{4-[1-(2,6-dioxopiperidin-3-yl)-3-methyl-2-oxo-2,3-dihydro-1H-1,3-benzodiazol-4-yl]piperazin-1-yl}cyclobutoxy]piperidin-1-yl}pyrimidin-4-yl)amino]-2-oxo-1-(propan-2-yl)-1,2-dihydroquinolin-3-yl}oxy)-N-methylacetamide] came in with a DC50 of less than 10 nM and a Dmax of no less than 70%.

Regarding `CNC(=O)COc1cc2cc(Nc3nc(N4CCC(O[C@H]5C[C@H](N6CCN(c7ccc8c(c7)n(C)c(=O)n8C7CCC(=O)NC7=O)CC6)C5)CC4)ncc3Cl)ccc2n(C(C)C)c1=O` (stereo partly shown) [Compound 3, 2-({6-[(5-chloro-2-{4-[(1r,3r)-3-{4-[1-(2,6-dioxopiperidin-3-yl)-3-methyl-2-oxo-2,3-dihydro-1H-1,3-benzodiazol-5-yl]piperazin-1-yl}cyclobutoxy]piperidin-1-yl}pyrimidin-4-yl)amino]-2-oxo-1-(propan-2-yl)-1,2-dihydroquinolin-3-yl}oxy)-N-methylacetamide], the DC50 is less than 10 nM and the Dmax is no less than 70%.

`CNC(=O)COc1cc2cc(Nc3nc(N4CCC(O[C@H]5C[C@H](N6CCC(c7ccc8c(c7)n(C)c(=O)n8C7CCC(=O)NC7=O)CC6)C5)CC4)ncc3Cl)ccc2n(C(C)C)c1=O` (stereo partly shown) [Compound 4, 2-({6-[(5-chloro-2-{4-[(1r,3r)-3-{4-[1-(2,6-dioxopiperidin-3-yl)-3-methyl-2-oxo-2,3-dihydro-1H-1,3-benzodiazol-5-yl]piperidin-1-yl}cyclobutoxy]piperidin-1-yl}pyrimidin-4-yl)amino]-2-oxo-1-(propan-2-yl)-1,2-dihydroquinolin-3-yl}oxy)-N-methylacetamide] came in with a DC50 of less than 10 nM and a Dmax of no less than 70%.

In the case of `CNC(=O)COc1cc2cc(Nc3nc(N4CCC(O[C@H]5C[C@H](N6CCN(c7ccc(NC8CCC(=O)NC8=O)cc7)CC6)C5)CC4)ncc3Cl)ccc2n(C(C)C)c1=O` (stereo partly shown) [Compound 5, 2-({6-[(5-chloro-2-{4-[(1r,3r)-3-(4-{4-[(2,6-dioxopiperidin-3-yl)amino]phenyl}piperazin-1-yl)cyclobutoxy]piperidin-1-yl}pyrimidin-4-yl)amino]-2-oxo-1-(propan-2-yl)-1,2-dihydroquinolin-3-yl}oxy)-N-methylacetamide], the DC50 fell in the range of 50 to 100 nM.

Take `CNC(=O)COc1cc2cc(Nc3nc(N4CCC(O[C@H]5C[C@H](N6CCN(c7ccc8c(n7)n(C)c(=O)n8C7CCC(=O)NC7=O)CC6)C5)CC4)ncc3Cl)ccc2n(C(C)C)c1=O` (stereo partly shown) [Compound 6, 2-({6-[(5-chloro-2-{4-[(1r,3r)-3-{4-[1-(2,6-dioxopiperidin-3-yl)-3-methyl-2-oxo-1H,2H,3H-imidazo[4,5-b]pyridin-5-yl]piperazin-1-yl}cyclobutoxy]piperidin-1-yl}pyrimidin-4-yl)amino]-2-oxo-1-(propan-2-yl)-1,2-dihydroquinolin-3-yl}oxy)-N-methylacetamide]: the DC50 was less than 10 nM and the Dmax is no less than 70%.

As for `CCn1c(=O)n(C2CCC(=O)NC2=O)c2ccc(N3CCN([C@H]4C[C@H](OC5CCN(c6ncc(Cl)c(Nc7ccc8c(c7)cc(OCC(=O)NC)c(=O)n8C(C)C)n6)CC5)C4)CC3)cc21` (stereo partly shown) [Compound 7], the DC50 is less than 10 nM and the Dmax was no less than 70%.

The compound `CNC(=O)COc1cc2cc(Nc3nc(N4CCC(O[C@H]5C[C@H](N6CCN(c7ccc8c(c7F)n(C)c(=O)n8C7CCC(=O)NC7=O)CC6)C5)CC4)ncc3Cl)ccc2n(C(C)C)c1=O` (stereo partly shown) [Compound 8, 2-({6-[(5-chloro-2-{4-[(1r,3r)-3-{4-[1-(2,6-dioxopiperidin-3-yl)-4-fluoro-3-methyl-2-oxo-2,3-dihydro-1H-1,3-benzodiazol-5-yl]piperazin-1-yl}cyclobutoxy]piperidin-1-yl}pyrimidin-4-yl)amino]-2-oxo-1-(propan-2-yl)-1,2-dihydroquinolin-3-yl}oxy)-N-methylacetamide] displayed a DC50 of less than 10 nM and a Dmax of no less than 70%.

For `CNC(=O)COc1cc2cc(Nc3nc(N4CCC(O[C@H]5C[C@H](N6CCN(c7cc8c(cc7F)n(C7CCC(=O)NC7=O)c(=O)n8C)CC6)C5)CC4)ncc3Cl)ccc2n(C(C)C)c1=O` (stereo partly shown) [Compound 9, 2-({6-[(5-chloro-2-{4-[(1r,3r)-3-{4-[1-(2,6-dioxopiperidin-3-yl)-6-fluoro-3-methyl-2-oxo-2,3-dihydro-1H-1,3-benzodiazol-5-yl]piperazin-1-yl}cyclobutoxy]piperidin-1-yl}pyrimidin-4-yl)amino]-2-oxo-1-(propan-2-yl)-1,2-dihydroquinolin-3-yl}oxy)-N-methylacetamide], the DC50 was less than 10 nM and the greatest degradation seen (Dmax) was no less than 70%.
